Experiments:
Assay type in all cases: physicochemical
[1] = Stability of crystal form, influencing factor experiment; conditions: for physical and chemical stability (conclusion): illumination, 40° C. and 60° C., humidity 75% and 92.5%
Procedure: The crystal form A of hydrochloride, the crystal form A of methanesulfonate, and the crystal form α of the acetate were placed flat and left open. The stability of the samples was investigated under conditions of illumination (4500 Lux), high temperature (40° C., 60° C.), and high humidity (RH 75%, RH 92.5%), and the sampling investigation period was 30 days.

[2] = Hygroscopicity study (dynamic vapor sorption); conditions: DVS, 25° C.; for Crystal form after hygroscopicity test: two cycles
Procedure: DVS is dynamic vapor sorption: The detection was carried out using SMS DVS Advantage at 25° C. with a humidity change of 50%-95%-0%-95%-50% in steps of 10% (the last step was 5%) (the specific range of humidity was subject to the corresponding pattern, and most methods were listed here), and the judgment standard was that dm/dt was not greater than 0.002%.
Using Surface Measurement Systems advantage 2, starting at a humidity of 50% at 25° C., the humidity range was 0%-95%, the step was 10%, the judgment standard was that the mass change dM/dT of each gradient was less than 0.002%, the running time TMAX of each humidity gradient was 360 min, with two cycles, and the specific results are shown in Table 8.

[3] = Long-term/accelerated stability study; conditions: for physical and chemical stability (conclusion): 25° C./60 RH and 40° C./75 RH, 6 months
Procedure: The crystal form A of hydrochloride, the crystal form A of methanesulfonate, and the crystal form α of acetate were placed at 25° C./60% RH and 40° C./75% RH to investigate the stability, and the results are shown in Tables 10, 11, and 12 below.

## CC(=O)O.CC(C)NCC(C(=O)N1C2CCC1CN(c1ncnc3c1C(C)(C)C(=O)N3)C2)c1ccc(Cl)cc1 (stereo not drawn) [Crystal form α of acetate]
[1]; 40° C., 5 days, open
  Crystal form: Untransformed
  Purity %: 99.6%
[1]; 40° C., 10 days, open
  Crystal form: Untransformed
  Purity %: 99.6%
[1]; 40° C., 30 days, open
  Crystal form: Untransformed
  Purity %: 99.0%
[1]; 60° C., 5 days, open
  Crystal form: Untransformed
  Purity %: 99.6%
[1]; 60° C., 10 days, open
  Crystal form: Untransformed
  Purity %: 99.5%
[1]; 60° C., 30 days, open
  Crystal form: Untransformed
  Purity %: 98.8%
[1]; 75% RH, 5 days, open
  Crystal form: Untransformed
  Purity %: 99.7%
[1]; 75% RH, 10 days, open
  Crystal form: Untransformed
  Purity %: 99.7%
[1]; 75% RH, 30 days, open
  Crystal form: Untransformed
  Purity %: 99.7%
[1]; 92.5% RH, 5 days, open
  Crystal form: Untransformed
  Purity %: 99.7%
[1]; 92.5% RH, 10 days, open
  Crystal form: Untransformed
  Purity %: 99.7%
[1]; 92.5% RH, 30 days, open
  Crystal form: Untransformed
  Purity %: 99.7%
[1]; 4500 Lux, 5 days, open
  Crystal form: Untransformed
  Purity %: 99.7%
[1]; 4500 Lux, 10 days, open
  Crystal form: Untransformed
  Purity %: 99.7%
[1]; 4500 Lux, 30 days, open
  Crystal form: Untransformed
  Purity %: 99.6%
[1]; Onset, 0 days
  Purity %: 99.7%
[1]; 30 days
  physical and chemical stability (conclusion): good physical stability and good chemical stability under high humidity and illumination conditions
[2]
  mass change 0% RH-80.0% RH: 0.50%
  mass change 0.0% RH-95.0% RH: 0.66%
  Crystal form after hygroscopicity test: Untransformed
[3]; 25° C./60% RH
  Crystal form: Untransformed
  Purity % 1 month: 99.7%
  Purity % 2 month: 99.7%
  Purity % 3 month: 99.7%
  Purity % 6 month: 99.7%
  Purity % Onset: 99.7%
[3]
  physical and chemical stability (conclusion): good physical and chemical stability
[3]; 40° C./75% RH
  Crystal form: Untransformed
  Purity % 1 month: 99.7%
  Purity % 2 month: 99.6%
  Purity % 3 month: 99.6%
  Purity % 6 month: 99.5%
  Purity % Onset: 99.7%

## CC(C)NCC(C(=O)N1C2CCC1CN(c1ncnc3c1C(C)(C)C(=O)N3)C2)c1ccc(Cl)cc1.Cl (stereo not drawn) [Crystal form A of hydrochloride]
[1]; 40° C., 5 days, open
  Crystal form: Untransformed
  Purity %: 99.3%
[1]; 40° C., 10 days, open
  Crystal form: Untransformed
  Purity %: 99.3%
[1]; 40° C., 30 days, open
  Crystal form: Untransformed
  Purity %: 99.3%
[1]; 60° C., 5 days, open
  Crystal form: Untransformed
  Purity %: 99.3%
[1]; 60° C., 10 days, open
  Crystal form: Untransformed
  Purity %: 99.3%
[1]; 60° C., 30 days, open
  Crystal form: Untransformed
  Purity %: 99.2%
[1]; 75% RH, 5 days, open
  Crystal form: Untransformed
  Purity %: 99.3%
[1]; 75% RH, 10 days, open
  Crystal form: Untransformed
  Purity %: 99.3%
[1]; 75% RH, 30 days, open
  Crystal form: Untransformed
  Purity %: 99.4%
[1]; 92.5% RH, 5 days, open
  Crystal form: Untransformed
  Purity %: 99.3%
[1]; 92.5% RH, 10 days, open
  Crystal form: Untransformed
  Purity %: 99.3%
[1]; 92.5% RH, 30 days, open
  Crystal form: Untransformed
  Purity %: 99.3%
[1]; 4500 Lux, 5 days, open
  Crystal form: Untransformed
  Purity %: 99.3%
[1]; 4500 Lux, 10 days, open
  Crystal form: Untransformed
  Purity %: 99.3%
[1]; 4500 Lux, 30 days, open
  Crystal form: Untransformed
  Purity %: 99.3%
[1]; Onset, 0 days
  Purity %: 99.3%
[1]; 30 days
  physical and chemical stability (conclusion): good physical and chemical stability
[2]
  mass change 0% RH-80.0% RH: 0.60%
  mass change 0.0% RH-95.0% RH: 0.79%
  Crystal form after hygroscopicity test: Untransformed
[3]; 25° C./60% RH
  Crystal form: Untransformed
  Purity % 1 month: 99.3%
  Purity % 2 month: 99.3%
  Purity % 3 month: 99.2%
  Purity % 6 month: 99.3%
  Purity % Onset: 99.3%
[3]
  physical and chemical stability (conclusion): good physical and chemical stability
[3]; 40° C./75% RH
  Crystal form: Untransformed
  Purity % 1 month: 99.3%
  Purity % 2 month: 99.3%
  Purity % 3 month: 99.2%
  Purity % 6 month: 99.3%
  Purity % Onset: 99.3%

Source: patent US20250145641A1, “FUSED BICYCLIC DERIVATIVE, PHARMACEUTICALLY ACCEPTABLE SALT, CRYSTAL FORM THEREOF AND PREPARATION METHOD THEREFOR” (JIANGSU HENGRUI PHARMACEUTICALS CO., LTD., priority 2021, published 2025)
